Experimental data published in patent US20140206681A1, “BTK INHIBITORS” (priority 2013, published 2014).

Legend:
[1] = biological target: T1, BTK enzyme (recombinant full-length BTK, hBTK) (Homo sapiens, UniProt Q06187); test: BTK enzyme activity assay, LANCE TR-FRET; type: biochemical; details: 50 pM hBTK, 2 μM biotin-A5-peptide, 25 μM ATP; 60 min compound & enzyme incubation; read-out: IC50 BTK activity value
T1 construct: recombinant protein from baculovirus-transfected Sf9 cells: full-length BTK, 6HIS-tag cleaved; 6HIS (cleaved yes); made in house; host or cells: baculovirus-transfected Sf9 cells
T1 sequence (Q06187 whole entry): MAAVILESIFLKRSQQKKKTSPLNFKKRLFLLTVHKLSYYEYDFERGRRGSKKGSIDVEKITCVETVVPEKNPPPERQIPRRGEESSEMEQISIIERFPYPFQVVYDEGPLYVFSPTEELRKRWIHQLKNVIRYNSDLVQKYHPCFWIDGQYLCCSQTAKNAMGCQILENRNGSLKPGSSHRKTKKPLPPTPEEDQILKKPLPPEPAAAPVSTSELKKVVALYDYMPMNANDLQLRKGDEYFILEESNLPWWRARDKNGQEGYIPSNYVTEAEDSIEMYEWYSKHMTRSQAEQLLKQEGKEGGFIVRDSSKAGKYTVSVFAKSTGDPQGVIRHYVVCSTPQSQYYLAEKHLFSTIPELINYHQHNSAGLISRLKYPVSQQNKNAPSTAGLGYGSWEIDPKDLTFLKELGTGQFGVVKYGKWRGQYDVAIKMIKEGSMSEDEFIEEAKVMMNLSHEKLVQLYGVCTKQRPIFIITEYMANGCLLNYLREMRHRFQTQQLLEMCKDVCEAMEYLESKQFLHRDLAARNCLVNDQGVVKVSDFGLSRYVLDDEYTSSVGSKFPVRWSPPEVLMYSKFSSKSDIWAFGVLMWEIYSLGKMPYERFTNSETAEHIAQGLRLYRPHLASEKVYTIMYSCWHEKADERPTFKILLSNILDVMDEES

HeLa cells = test: [3H]Adenosine uptake functional cellular assay; type: cell-based; details: Homo sapiens, HeLa, accumulation of [3H]adenosine into HeLa cells; compound range 10 μM to […]; read-out: Adenosine uptake inhibition IC50
Summary of the method: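 Inhibition of adenosine uptake was measured in HeLa cells (ATCC CCL-2) by following accumulation of tritiated adenosine. Cells were kept overnight at 37° C. with 5% (v/v) CO2, then switched to 40 μL HBSS plus 5% (v/v) FBS. 20 μL of 500 nM [3H]adenosine was added, and uptake was counted on a Topcount NXT reader.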

| Compound | IC50 [1] | IC50 (HeLa cells) |
| --- | --- | --- |
| Nc1nccn2c([C@H]3CC[C@H]4CNCC(=O)N4C3)nc(-c3ccc(C(=O)Nc4cc(C(F)(F)F)ccn4)cc3)c12 [Example 57, 4-{8-amino-3-[(7S,9aS)-4-oxooctahydro-2H-pyrido[1,2-a]pyrazin-7-yl]imidazo[1,5-a]pyrazin-1-yl}-N-[4-(trifluoromethyl)pyridin-2-yl]benzamide] | 0.28 nM | ≥ 10000 nM |
| C[C@H]1OC(=O)N2C[C@H](c3nc(-c4ccc(C(=O)Nc5cc(C6CC6)ccn5)cc4)c4c(N)nccn34)CC[C@@H]12 [Example 47, 4-{8-amino-3-[(1R,6R,8aS)-1-methyl-3-oxohexahydro[1,3]oxazolo[3,4-a]pyridin-6-yl]imidazo[1,5-a]pyrazin-1-yl}-N-(4-cyclopropylpyridin-2-yl)benzamide] | 0.17 nM | 31.8 nM |
| Nc1nccn2c([C@@H]3CC[C@H]4CN(C(=O)c5ccncc5)CC(=O)N4C3)nc(-c3ccc(C(=O)Nc4cc(C(F)(F)F)ccn4)cc3)c12 [Example 102, 4-{8-amino-3-[(7R,9aS)-4-oxo-2-(pyridin-4-ylcarbonyl)octahydro-2H-pyrido[1,2-a]pyrazin-7-yl]imidazo[1,5-a]pyrazin-1-yl}-N-[4-(trifluoromethyl)pyridin-2-yl]benzamide] | 0.21 nM | 471 nM |
| Nc1nccn2c([C@@H]3CC[C@H]4CNCC(=O)N4C3)nc(-c3ccc(C(=O)Nc4cc(C(F)(F)F)ccn4)cc3)c12 [Example 40, 4-{8-amino-3-[(7R,9aS)-4-oxooctahydro-2H-pyrido[1,2-a]pyrazin-7-yl]imidazo[1,5-a]pyrazin-1-yl}-N-[4-(trifluoromethyl)pyridin-2-yl]benzamide] | 0.22 nM | 186 nM |
| Nc1nccn2c([C@@H]3CC[C@H]4C[C@H](O)C(=O)N4C3)nc(-c3ccc(C(=O)Nc4cc(C(F)(F)F)ccn4)cc3)c12 [Example 68, 4-{8-amino-3-[(2S,6R,8aS)-2-hydroxy-3-oxooctahydroindolizin-6-yl]imidazo[1,5-a]pyrazin-1-yl}-N-[4-(trifluoromethyl)pyridin-2-yl]benzamide] | 0.081 nM | 430 nM |
| Nc1nccn2c([C@H]3CC[C@@H]4COCCN4C3)nc(-c3ccc(C(=O)Nc4cc(C(F)(F)F)ccn4)cc3)c12 [Example 56, 4-{8-amino-3-[(7S,9aR)-octahydropyrido[2,1-c][1,4]oxazin-7-yl]imidazo[1,5-a]pyrazin-1-yl}-N-[4-(trifluoromethyl)pyridin-2-yl]benzamide] | 1.8 nM | 114 nM |
| COC(=O)c1ccnc(NC(=O)c2ccc(-c3nc([C@@H]4CC[C@H]5CCC(=O)N5C4)n4ccnc(N)c34)cc2)c1 [Example 103, methyl 2-{[(4-{8-amino-3-[(6R,8aS)-3-oxooctahydroindolizin-6-yl]imidazo[1,5-a]pyrazin-1-yl}phenyl)carbonyl]amino}pyridine-4-carboxylate] | 0.4 nM | 69.3 nM |
| Nc1nccn2c([C@@H]3CC[C@H]4CCC(=O)N4C3)nc(-c3ccc(C(=O)Nc4cc(C5CC5)ccn4)cc3)c12 [Example 19, 4-{8-amino-3-[(6R,8aS)-3-oxooctahydroindolizin-6-yl]imidazo[1,5-a]pyrazin-1-yl}-N-(4-cyclopropylpyridin-2-yl)benzamide] | 0.18 nM | 233 nM |
| CC1(C)OC(=O)N2C[C@H](c3nc(-c4ccc(C(=O)Nc5cc(C(F)(F)F)ccn5)cc4)c4c(N)nccn34)CC[C@H]21 [Example 52, 4-{8-amino-3-[(6R,8aS)-1,1-dimethyl-3-oxohexahydro[1,3]oxazolo[3,4-a]pyridin-6-yl]imidazo[1,5-a]pyrazin-1-yl}-N-[4-(trifluoromethyl)pyridin-2-yl]benzamide] | 0.13 nM | 50.1 nM |
| COc1cc(C(=O)Nc2cc(C(F)(F)F)ccn2)ccc1-c1nc([C@@H]2CC[C@H]3[C@@H](C)OC(=O)N3C2)n2ccnc(N)c12 [Example 89, 4-(8-amino-3-((1R,6R,8aS)-1-methyl-3-oxohexahydro-1H-oxazolo[3,4-a]pyridin-6-yl)imidazo[1,5-a]pyrazin-1-yl)-3-methoxy-N-(4-(trifluoromethyl)pyridin-2-yl)benzamide] | 0.13 nM | 490 nM |
| CCNC(=O)Nc1nccn2c([C@@H]3CC[C@H]4CCC(=O)N4C3)nc(-c3ccc(C(=O)Nc4cc(C(F)(F)F)ccn4)cc3)c12 [Example 61, 4-{8-[(ethylcarbamoyl)amino]-3-[(6R,8aS)-3-oxooctahydroindolizin-6-yl]imidazo[1,5-a]pyrazin-1-yl}-N-[4-(trifluoromethyl)pyridin-2-yl]benzamide] | 17.7 nM | 19.2 nM |
| CNc1nccn2c([C@@H]3CC[C@H]4CCC(=O)N4C3)nc(-c3ccc(C(=O)Nc4cc(C(F)(F)F)ccn4)cc3)c12 [Example 60, 4-{8-(methylamino)-3-[(6R,8aS)-3-oxooctahydroindolizin-6-yl]imidazo[1,5-a]pyrazin-1-yl}-N-[4-(trifluoromethyl)pyridin-2-yl]benzamide] | 12.7 nM | 44.1 nM |

The next lines start with the values.

| IC50 [1] | IC50 (HeLa cells) | Compound |
| --- | --- | --- |
| 831 nM | 587 nM | CC(F)(F)c1cc(C(=O)Nc2cc(C(F)(F)F)ccn2)ccc1-c1nc([C@@H]2CC[C@H]3CCC(=O)N3C2)n2ccnc(N)c12 [Example 114, 4-{8-amino-3-[(6R,8aS)-3-oxooctahydroindolizin-6-yl]imidazo[1,5-a]pyrazin-1-yl}-3-(1,1-difluoroethyl)-N-[4-(trifluoromethyl)pyridin-2-yl]benzamide] |
| 2.2 nM | 2380 nM | Nc1nccn2c([C@@H]3CC[C@H]4CCC(=O)N4C3)nc(-c3ccc(C(=O)Nc4nccc(C(F)(F)F)n4)cc3)c12 [Example 20] |
| 4.4 nM | 1750 nM | CC(=O)Nc1nccn2c([C@@H]3CC[C@H]4CCC(=O)N4C3)nc(-c3ccc(C(=O)Nc4cc(C(F)(F)F)ccn4)cc3O)c12 [Example 156, 4-{8-(acetylamino)-3-[(6R,8aS)-3-oxooctahydroindolizin-6-yl]imidazo[1,5-a]pyrazin-1-yl}-3-hydroxy-N-[4-(trifluoromethyl)pyridin-2-yl]benzamide] |
| 0.75 nM | 1120 nM | CCOc1cc(C(=O)Nc2cc(C(F)(F)F)ccn2)c(F)cc1-c1nc([C@@H]2CC[C@H]3CCC(=O)N3C2)n2ccnc(N)c12 [Example 151, 4-{8-amino-3-[(6R,8aS)-3-oxooctahydroindolizin-6-yl]imidazo[1,5-a]pyrazin-1-yl}-5-ethoxy-2-fluoro-N-[4-(trifluoromethyl)pyridin-2-yl]benzamide] |
| 1.5 nM | 1550 nM | COc1cc(C(=O)Nc2cc(C(F)(F)F)n(C)n2)ccc1-c1nc([C@@H]2CC[C@H]3CCC(=O)N3C2)n2c(Cl)cnc(N)c12 [Example 189, 4-{8-amino-5-chloro-3-[(6R,8aS)-3-oxooctahydroindolizin-6-yl]imidazo[1,5-a]pyrazin-1-yl}-3-methoxy-N-[1-methyl-5-(trifluoromethyl)-1H-pyrazol-3-yl]benzamide] |
| 0.21 nM | 234 nM | CC(F)(F)c1ccnc(NC(=O)c2ccc(-c3nc([C@@H]4CC[C@H]5CCC(=O)N5C4)n4ccnc(N)c34)c(F)c2)c1 [Example 21, 4-{8-amino-3-[(6R,8aS)-3-oxooctahydroindolizin-6-yl]imidazo[1,5-a]pyrazin-1-yl}-N-[4-(1,1-difluoroethyl)pyridin-2-yl]-3-fluorobenzamide] |
| 5.7 nM | 1280 nM | CC(C)Oc1cc(C(=O)Nc2cc(C(F)(F)F)ccn2)ccc1-c1nc([C@@H]2CC[C@H]3CCC(=O)N3C2)n2ccnc(N)c12 [Example 139, 4-{8-amino-3-[(6R,8aS)-3-oxooctahydroindolizin-6-yl]imidazo[1,5-a]pyrazin-1-yl}-3-(1-methylethoxy)-N-[4-(trifluoromethyl)pyridin-2-yl]benzamide] |
| 1.4 nM | 1120 nM | COc1cc(C(=O)Nc2ccc(C)cn2)ccc1-c1nc([C@@H]2CC[C@H]3CCC(=O)N3C2)n2c(Cl)cnc(N)c12 [Example 210, 4-{8-amino-5-chloro-3-[(6R,8aS)-3-oxooctahydroindolizin-6-yl]imidazo[1,5-a]pyrazin-1-yl}-3-methoxy-N-(5-methylpyridin-2-yl)benzamide] |
| 0.23 nM | 2150 nM | CCOc1cc(C(=O)Nc2cc(C(F)(F)F)n(C)n2)ccc1-c1nc([C@@H]2CC[C@H]3CCC(=O)N3C2)n2c(Cl)cnc(N)c12 [Example 135, 4-{8-amino-5-chloro-3-[(6R,8aS)-3-oxooctahydroindolizin-6-yl]imidazo[1,5-a]pyrazin-1-yl}-3-ethoxy-N-[1-methyl-5-(trifluoromethyl)-1H-pyrazol-3-yl]benzamide] |
| 0.44 nM | 2420 nM | Cn1nc(NC(=O)c2ccc(-c3nc([C@@H]4CC[C@H]5CCC(=O)N5C4)n4c(Cl)cnc(N)c34)c(OC3CC3)c2)cc1C(F)(F)F [Example 145, 4-{8-amino-5-chloro-3-[(6R,8aS)-3-oxooctahydroindolizin-6-yl]imidazo[1,5-a]pyrazin-1-yl}-3-(cyclopropyloxy)-N-[1-methyl-5-(trifluoromethyl)-1H-pyrazol-3-yl]benzamide] |
| 1.9 nM | 817 nM | CCOc1cc(C(=O)Nc2ncc(C)s2)ccc1-c1nc([C@@H]2CC[C@H]3CCC(=O)N3C2)n2c(F)cnc(N)c12 [Example 164, 4-{8-amino-5-fluoro-3-[(6R,8aS)-3-oxooctahydroindolizin-6-yl]imidazo[1,5-a]pyrazin-1-yl}-3-ethoxy-N-(5-methyl-1,3-thiazol-2-yl)benzamide] |
